Test results taken from patent publication US20240270730A1, “DRG-MDM2-2 FOR USE AS A NOVEL MOUSE DOUBLE MINUTE 2 (MDM2) INHIBITOR” (BAHCESEHIR UNIVERSITESI, priority 2020, published 2024).

Tests used:
MDA-MB231 cell lines = test: MTT cell viability assay (IC50); type: cell-based; conditions: Homo sapiens, MDA-MB-231; MDA-MB231 cells; single dose of treatment; concentrations 10-9 to 104 M; 570 nm absorbance; FIG. 1; read-out: IC50 (half-maximal inhibitory concentration), MTT cell viability
Procedure: HCT 116 colon cancer and MDA-MB231 breast cancer cell lines are used in cell culture experiments.
Cells were treated with high-glucose DMEM medium (Biosera) supplemented with 10% FBS (Gibco) and 1× penicillin/streptomycin (Multicell). The assay was designed to contain 10,000 cells for each well of 24-well cell culture plates before being treated with inhibitors.
Compound of formula I was dissolved with DMSO as 20 mM stock. 24 hours later, the solution was diluted in DMEM with 10% FBS and final concentration of vehicle DMSO was 0.5% at maximum. Therefore, the vehicle group included 0.5% DMSO concentration in experiments. Intensive cultivation of cells causes a decrease in proliferation capacity.
The MTT cell viability assay was used to detect values of half-maximal inhibitory concentration (IC50). Different concentrations of compound of formula I ranging between 10-9 to 104 M were tested on MDA-MB231 cell lines with single dose of treatment. 570 nm absorbance values were recorded and IC50 values were calculated by dose response—inhibition curves and nonlinear regression analysis on Graphpad Prism 8 software.

MDM2 protein = MDM2 protein (Homo sapiens, UniProt Q00987); conditions: compared with a natural p53 peptide; cited from earlier work
Sequence of MDM2 protein (Q00987 whole entry, species assumed): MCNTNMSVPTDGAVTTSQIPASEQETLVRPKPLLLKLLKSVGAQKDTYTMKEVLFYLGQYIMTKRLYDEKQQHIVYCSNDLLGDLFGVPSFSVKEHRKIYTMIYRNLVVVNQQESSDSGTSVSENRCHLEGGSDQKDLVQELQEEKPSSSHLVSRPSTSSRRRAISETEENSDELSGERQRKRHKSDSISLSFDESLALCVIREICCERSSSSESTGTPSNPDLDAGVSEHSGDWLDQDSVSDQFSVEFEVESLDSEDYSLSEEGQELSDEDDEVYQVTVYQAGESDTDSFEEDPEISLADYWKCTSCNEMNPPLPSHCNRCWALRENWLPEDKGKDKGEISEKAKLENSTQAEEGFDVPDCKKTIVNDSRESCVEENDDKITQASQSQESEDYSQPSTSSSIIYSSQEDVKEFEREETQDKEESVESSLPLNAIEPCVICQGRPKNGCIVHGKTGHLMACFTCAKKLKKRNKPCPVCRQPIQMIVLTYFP

| Compound | IC50 (MDA-MB231 cell lines) [µM] | binding affinity to MDM2 protein relative to natural p53 peptide (MDM2 protein) [fold] |
| --- | --- | --- |
| O=C(NCc1nc(-c2ccccc2)no1)NC(Cc1c[nH]c2ccccc12)C(=O)O (centres unmarked) [compound of formula I] | 0.891 | – |
| MI-319 | – | 500 |
